Laboratory results taken from US20110124715A1, “Antiviral Oligonucleotides Having a Conserved G4 Core Sequence” (priority 1992, published 2011).
Where “and” joins values, the source holds several entries; their conditions need not be identical. Identical values can stand only once. Strand notation (5' to 3'): a small letter for the sugar, then the base; units joined by * are phosphorothioate-linked, units joined directly phosphodiester-linked; [ ] holds rarer units or linkages, { } end groups; capitals alone tell only the bases. [I] = hypoxanthine (inosine); d = 2'-deoxy (DNA)

What was measured:
[1] = target: T1, human type II phospholipase A2 (Homo sapiens, UniProt P14555); assay: Phospholipase A2 assay, 3H-oleic acid labelled E. coli substrate; format: biochemical; details: for % Inhibition (1 μM) / inhibition of enzyme activity: 1 μM; for effect on substrate kinetics: increasing amounts of E. coli substrate, ISIS 3481 at 0.2 μM and 2 μM; for I.C.50 relative to ISIS 3196: b86, fold higher
T1 sequence (P14555 21-144): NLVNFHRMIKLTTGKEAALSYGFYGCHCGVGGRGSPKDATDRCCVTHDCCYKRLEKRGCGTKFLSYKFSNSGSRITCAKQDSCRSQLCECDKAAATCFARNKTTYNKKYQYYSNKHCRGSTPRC

HSV-1 (KOS) = assay: HSV-1 infection ELISA assay; format: cell-based, herpes simplex virus
HIV-1 = details: Table 16; acute HIV assay; listed as ToToGoGoGoGoToT
[2] = Table 5, two separate experiments

Row | Compound | % Inhibition (1 μM) ([1]; Table 4) | other results
1 | 3196 (dG*dG*dG*dT*dG*dG*dG*dT*dA*dT*dA*dG*dA*dA*dG*dG*dG*dC*dT*dC*dC) [compound 3196] | 98.5% | % Inhibition (1 μM) [1, 2]: 100% and 76.2%
2 | 4946 (dG*dG*dG*dT*dG*dG*dG*dA*dA*dT*dA*dG) [compound 4946] |  | % Inhibition (1 μM) [1, 2]: 73.2%
3 | GTAGGGAGGGAGGGTATGAGA (dG*dT*dA*dG*dG*dG*dA*dG*dG*dG*dA*dG*dG*dG*dT*dA*dT*dG*dA*dG*dA) [ISIS 3470] |  | inhibition of enzyme activity [1]: completely inhibited
4 | 3193 (dC*dC*dT*dG*dC*dA*dG*dT*dA*dG*dG*dC*dC*dT*dG*dG*dA*dA*dG*dG*dA) [compound 3193] | 22.6% | 
5 | 3688 (dT*dG*dG*dC*dC*dT*dC*dA*dC*dC*dG*dA*dT*dC*dC*dG*dT*dT*dG*dC*dA) [compound 3688] | 43.1% | 
6 | 3470 (dG*dT*dA*dG*dG*dG*dA*dG*dG*dG*dA*dG*dG*dG*dT*dA*dT*dG*dA*dG*dA) [compound 3470] | 88.9% | 
7 | 4955 (dG*dG*dG*dA*dG*dG*dG*dT*dA*dT*dA*dG) [compound 4955] |  | % Inhibition (1 μM) [1, 2]: 97.5%
8 | 3182 (antisense dC*dA*dG*dA*dG*dG*dA*dC*dT*dC*dC*dA*dG*dA*dG*dT*dT*dG*dT*dA*dT) [compound 3182] | 30.2% | 
9 | 3631 (dA*dG*dG*dT*dC*dG*dA*dG*dG*dA*dG*dT*dG*dG*dT*dC*dT*dG*dA*dG*dC) [compound 3631] | 20.7% | 
10 | 3632 (dC*dC*dA*dG*dG*dA*dG*dA*dG*dG*dT*dC*dG*dG*dT*dA*dA*dG*dG*dC*dG) [compound 3632] | 29.2% | 
11 | 3475 (dT*dC*dT*dC*dA*dT*dT*dC*dT*dG*dG*dG*dT*dG*dG*dG*dT*dA*dT*dA*dG) [compound 3475] | 67.0% | 
12 | 3712 (dA*dG*dG*dA*dG*dT*dC*dC*dT*dG*dT*dT*dT*dT*dG*dA*dA*dA*dT*dC*dA) [compound 3712] | 31.8% | 
13 | 3671 (dT*dA*dG*dG*dA*dG*dG*dG*dT*dC*dT*dT*dC*dA*dT*dG*dG*dT*dA*dA*dG) [compound 3671] | 49.3% | 
14 | GGG T GGG T ATA G AAG G GCT CC (GGGTGGGTATAGAAGGGCTCC; chemistry not given here) [ISIS 3196] |  | inhibition of enzyme activity [1]: completely inhibited; inhibition ([1]; boiling water for 15 minutes prior to addition to the assay): 21%; effect on substrate kinetics [1]: apparent noncompetitive inhibitor; inhibition ([1]; native, not boiled): 94%
15 | 3471 (dA*dA*dG*dG*dA*dA*dC*dT*dT*dG*dG*dT*dT*dA*dG*dG*dG*dT*dA*dG*dG) [compound 3471] | 34.5% | 
16 | GTGGAGGAGAGCAGTAGAAGG (dG*dT*dG*dG*dA*dG*dG*dA*dG*dA*dG*dC*dA*dG*dT*dA*dG*dA*dA*dG*dG) [ISIS 3477] |  | inhibition of enzyme activity [1]: 54.7%
17 | 3694 (dA*dC*dA*dG*dC*dA*dG*dC*dT*dG*dT*dG*dA*dG*dG*dA*dG*dA*dC*dA*dC) [compound 3694] | 28.2% | 
18 | 3468 (dG*dG*dG*dA*dC*dT*dC*dA*dG*dC*dA*dA*dC*dG*dA*dG*dG*dG*dG*dT*dG) [compound 3468] | 97.5% | 
19 | 4672 (dG*dG*dG*dT*dG*dG*dG*dT*dA*dT*dA*dG) [compound 4672] |  | % Inhibition (1 μM) [1, 2]: 73.9% and 94.6%

Row | Compound | % Inhibition (1 μM) ([1]; Table 4) | other results
20 | TTTTTGATTTGCTAATTGCTT (dT*dT*dT*dT*dT*dG*dA*dT*dT*dT*dG*dC*dT*dA*dA*dT*dT*dG*dC*dT*dT) [ISIS 3481] |  | effect on substrate kinetics [1]: did not modify the substrate kinetics
21 | 3479 (dC*dC*dG*dG*dA*dG*dT*dA*dC*dA*dG*dC*dT*dT*dC*dT*dT*dT*dG*dG*dT) [compound 3479] | 42.3% | 
22 | 3476 (dG*dC*dT*dG*dG*dA*dA*dA*dT*dC*dT*dG*dC*dT*dG*dG*dA*dT*dG*dT*dC) [compound 3476] | 43.4% | 
23 | AGGTCGAGGAGTGGTCTGAGC (dA*dG*dG*dT*dC*dG*dA*dG*dG*dA*dG*dT*dG*dG*dT*dC*dT*dG*dA*dG*dC) [ISIS 3631] |  | I.C.50 relative to ISIS 3196 [1]: approximately 10 fold
24 | GGGGGGTG [ISIS 5684] |  | ED50 (HSV-1 (KOS); b190): approximately 0.6 μM
25 | 3659 (dT*dG*dC*dT*dC*dC*dT*dC*dC*dT*dT*dG*dG*dT*dG*dG*dC*dT*dC*dT*dC) [compound 3659] | 38.2% | 
26 | 4962 (dG*dG*dG*dT*dG*dG*dG*dT*dA*dT) [compound 4962] |  | % Inhibition (1 μM) [1, 2]: 36.3%
27 | 3478 (dT*dG*dG*dT*dT*dA*dA*dG*dC*dA*dC*dG*dG*dA*dG*dT*dT*dG*dA*dG*dG) [compound 3478] | 26.4% | 
28 | 3669 (dG*dG*dT*dG*dA*dC*dA*dA*dA*dT*dG*dC*dA*dG*dA*dT*dG*dG*dA*dC*dT) [compound 3669] | 34.7% | 
29 | Nc1nc2c(ncn2COCCO)c(=O)[nH]1 [ACV, 9-(2-hydroxyethoxymethyl) guanine, reference compound] |  | activity against HSV-1 (HSV-1 (KOS); FIG. 8 and FIG. 9): more active than a control oligonucleotide, ISIS 3383
30 | 3679 (dA*dG*dT*dA*dG*dG*dC*dC*dT*dG*dG*dA*dA*dG*dG*dA*dA*dA*dT*dT*dT) [compound 3679] | 30.3% | 
31 | 4149 (dC*dT*dA*dC*dG*dG*dC*dA*dG*dA*dG*dA*dC*dG*dA*dG*dA*dT*dA*dG*dC) [compound 4149] | 20.2% | 
32 | 3630 (dT*dC*dT*dC*dA*dT*dA*dC*dC*dC*dT*dC*dC*dC*dT*dC*dC*dC*dT*dA*dC) [compound 3630] | 17.6% | 
33 | 3474 (dA*dT*dA*dG*dA*dA*dG*dG*dG*dC*dT*dC*dC*dT*dG*dC*dC*dT*dG*dG*dC) [compound 3474] | 13.3% | 
34 | GCCGAGGTCCATGTCGTACGC (GCCGAGGTCCATGTCGTACGC; chemistry not given here) [ISIS 1082, negative control oligonucleotide complementary to HSV UL13 translation initiation codon; has no runs of G, reference compound] |  | EC50 (HSV-1 (KOS); b150, duplicate experiments): 2.5 µM and 1.8 µM
35 | 4956 (dG*dG*dG*dC*dG*dG*dG*dT*dA*dT*dA*dG) [compound 4956] |  | % Inhibition (1 μM) [1, 2]: 92.0%
36 | 5310 (GTTGGAGACCGGGGTTGGGN; DNA, [I] at 20, backbone not given here) [compound 5310] |  | EC50 (HSV-1 (KOS); Table 12, inosine-substituted oligonucleotides against HSV): 0.4 µM
37 | 4133 (dA*dG*dT*dG*dC*dA*dC*dG*dT*dT*dG*dA*dG*dT*dA*dT*dG*dT*dG*dA*dG) [compound 4133] | 37.3% | 
38 | 4947 (dA*dG*dG*dT*dG*dG*dG*dT*dA*dT*dA*dG) [compound 4947] |  | % Inhibition (1 μM) [1, 2]: 22.7%

Row | Compound | % Inhibition (1 μM) ([1]; Table 4) | other results
39 | 4957 (dG*dG*dG*dT*dG*dG*dA*dT*dA*dT*dA*dG) [compound 4957] |  | % Inhibition (1 μM) [1, 2]: 81.9%
40 | TT GGGG TT [ISIS 5671] |  | IC50 (HIV-1): inactive
41 | 3192 (dG*dG*dA*dA*dG*dG*dT*dT*dT*dC*dC*dA*dG*dG*dG*dA*dA*dG*dA*dG*dG) [compound 3192] | 28.1% | 
42 | 3184 (antisense dT*dT*dC*dA*dT*dG*dG*dT*dA*dA*dG*dA*dG*dT*dT*dC*dT*dT*dG*dG*dG) [compound 3184] | 25.1% | 
43 | 3676 (dA*dG*dC*dT*dC*dT*dT*dA*dC*dC*dA*dA*dA*dG*dA*dT*dC*dA*dT*dG*dA) [compound 3676] | 24.5% | 
44 | 3665 (dG*dG*dA*dC*dT*dG*dG*dC*dC*dT*dA*dG*dC*dT*dC*dC*dT*dC*dT*dG*dC) [compound 3665] | 45.8% | 
45 | 3697 (dA*dC*dT*dC*dT*dT*dA*dC*dC*dA*dC*dA*dG*dG*dT*dG*dA*dT*dT*dC*dT) [compound 3697] | 39% | 
46 | 3481 (dT*dT*dT*dT*dT*dG*dA*dT*dT*dT*dG*dC*dT*dA*dA*dT*dT*dG*dC*dT*dT) [compound 3481] | 2.2% | 
47 | 3477 (dG*dT*dG*dG*dA*dG*dG*dA*dG*dA*dG*dC*dA*dG*dT*dA*dG*dA*dA*dG*dG) [compound 3477] | 54.7% | 
48 | 3633 (dG*dT*dA*dG*dG*dG*dA*dT*dG*dG*dG*dA*dG*dT*dG*dA*dA*dG*dG*dA*dG) [compound 3633] | 58.5% | 
49 | 3181 (antisense dT*dC*dT*dG*dC*dC*dC*dC*dG*dG*dC*dC*dG*dT*dC*dG*dC*dT*dC*dC*dC) [compound 3181] | 42.7% | 
50 | 3473 (dC*dT*dG*dC*dC*dT*dG*dG*dC*dC*dT*dC*dT*dA*dG*dG*dA*dT*dG*dG*dG) [compound 3473] | 25.9% | 
51 | ISIS 1573: phosphorothioate deoxyoligonucleotide, SEQ ID NO: 120 (DNA dG*dA*dG*dG*dC*dT*dG*dA*dG*dG*dT*dG*dG*dG*dA*dG*dG*dA) |  | inhibition of phospholipase A2 ([1]; concentrations as high as 10 μM): did not significantly inhibit
52 | 3480 (dT*dT*dG*dC*dT*dT*dT*dA*dT*dT*dC*dA*dG*dA*dA*dG*dA*dG*dA*dC*dC) [compound 3480] | 24.5% | 
53 | 3185 (antisense CAAAGATCATGATCACTGCCA; phosphorothioate, chemistry not fully specified) [compound 3185] | 22.7% | 
54 | 3472 (dT*dG*dG*dG*dT*dG*dA*dG*dG*dG*dA*dT*dG*dC*dT*dT*dT*dC*dT*dG*dC) [compound 3472] | 69.0% | 
55 | 3628 (dG*dG*dA*dG*dC*dC*dC*dT*dT*dC*dT*dA*dT*dA*dC*dC*dC*dA*dC*dC*dC) [compound 3628] | 13.6% | I.C.50 relative to ISIS 3196 [1]: approximately 10 fold
56 | 3663 (dC*dT*dC*dT*dG*dC*dT*dG*dG*dG*dT*dG*dG*dT*dC*dT*dC*dA*dA*dC*dT) [compound 3663] | 16.3% | 
57 | 3629 (dC*dA*dC*dC*dC*dC*dT*dC*dG*dT*dT*dG*dC*dT*dG*dA*dG*dT*dC*dC*dC) [compound 3629] | 20.5% | 
